Values quoted from earlier work as cited in patent EP4613273A1, “TREATMENT OF BONE LOSS” (priority 2024, dated 2025).

Target: T1, cathepsin K (Homo sapiens, UniProt P43235)
T1 construct: host or cells: patients with postmenopausal osteoporosis (endogenous enzyme)
T1 sequence (P43235 115-329): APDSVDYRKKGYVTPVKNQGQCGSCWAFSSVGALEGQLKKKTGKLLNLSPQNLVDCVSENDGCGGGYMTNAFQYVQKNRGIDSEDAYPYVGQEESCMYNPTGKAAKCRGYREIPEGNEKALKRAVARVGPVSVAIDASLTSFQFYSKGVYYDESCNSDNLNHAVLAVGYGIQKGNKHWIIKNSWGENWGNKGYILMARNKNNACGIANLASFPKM
Settings: cited from earlier work

CC(C)(F)C[C@H](N[C@@H](c1ccc(-c2ccc(S(C)(=O)=O)cc2)cc1)C(F)(F)F)C(=O)NC1(C#N)CC1 [Odanacatib]
adverse effects leading to termination of development: cardio-cerebrovascular adverse effects
